Data from patent publication US10738028B2, “Spiro three-membered ring, spiro five-membered ring peptide deformylase inhibitor and use thereof in antibacteria and anti-tumor” (priority 2016, dated 2020).

Tests used:
Type in all cases: cell-based
[1] = system: methicillin-resistant Staphylococcus epidermidis (MRSE); test: MIC, two-fold agar dilution (CLSI), clinical isolates; details: for Anti-bacterial activity (MIC), strain MRSE 15-1: clinical isolate MRSE 15-1; for Anti-bacterial activity (MIC), strain MRSE 15-2: clinical isolate MRSE 15-2; for Anti-bacterial activity (MIC), strain MRSE 15-3: clinical isolate MRSE 15-3; for Anti-bacterial activity (MIC), strain MRSE 15-7: clinical isolate MRSE 15-7
Procedure, shortened: (§1)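 CLSI two-fold agar dilution; MIC of test samples read per tested strain.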

[2] = system: Moraxella catarrhalis (BCA); test: as above; details: for Anti-bacterial activity (MIC), strain BCA 14-1: clinical isolate BCA 14-1; for Anti-bacterial activity (MIC), strain BCA 14-4: clinical isolate BCA 14-4; for Anti-bacterial activity (MIC), strain BCA 14-5: clinical isolate BCA 14-5; for Anti-bacterial activity (MIC), strain BCA 14-6: clinical isolate BCA 14-6; for Anti-bacterial activity (MIC), strain BCA 14-7: clinical isolate BCA 14-7; for Anti-bacterial activity (MIC), strain BCA 14-8: clinical isolate BCA 14-8; for Anti-bacterial activity (MIC), strain BCA 14-10: clinical isolate BCA 14-10
Procedure, shortened: as §1

[3] = system: Enterococcus faecium (EFM); test: as above; details: for Anti-bacterial activity (MIC), strain EFM 15-1: clinical isolate EFM 15-1; for Anti-bacterial activity (MIC), strain EFM 15-2: clinical isolate EFM 15-2; for Anti-bacterial activity (MIC), strain EFM 15-3: clinical isolate EFM 15-3; for Anti-bacterial activity (MIC), strain EFM 15-4: clinical isolate EFM 15-4; for Anti-bacterial activity (MIC), strain EFM 15-5: clinical isolate EFM 15-5; for Anti-bacterial activity (MIC), strain EFM 15-6: clinical isolate EFM 15-6
Procedure, shortened: as §1

[4] = system: Enterococcus faecalis (EFA); test: as above; details: for Anti-bacterial activity (MIC), strain EFA 15-1: clinical isolate EFA 15-1; for Anti-bacterial activity (MIC), strain EFA 15-2: clinical isolate EFA 15-2; for Anti-bacterial activity (MIC), strain EFA 15-3: clinical isolate EFA 15-3; for Anti-bacterial activity (MIC), strain EFA 15-4: clinical isolate EFA 15-4; for Anti-bacterial activity (MIC), strain EFA 15-5: clinical isolate EFA 15-5; for Anti-bacterial activity (MIC), strain EFA 15-6: clinical isolate EFA 15-6; for Anti-bacterial activity (MIC), strain EFA 15-9: clinical isolate EFA 15-9
Procedure, shortened: as §1

[5] = system: Escherichia coli (including ESBLs, non-ESBLs); test: as above; details: for Anti-bacterial activity (MIC), strain ECO+ 15-1: clinical isolate ECO+ 15-1; for Anti-bacterial activity (MIC), strain ECO+ 15-2: clinical isolate ECO+ 15-2; for Anti-bacterial activity (MIC), strain ECO+ 15-3: clinical isolate ECO+ 15-3; for Anti-bacterial activity (MIC), strain ECO+ 15-4: clinical isolate ECO+ 15-4; for Anti-bacterial activity (MIC), strain ECO− 15-1: clinical isolate ECO− 15-1; for Anti-bacterial activity (MIC), strain ECO− 15-2: clinical isolate ECO− 15-2; for Anti-bacterial activity (MIC), strain ECO− 15-3: clinical isolate ECO− 15-3; for Anti-bacterial activity (MIC), strain ECO− 15-4: clinical isolate ECO− 15-4
Procedure, shortened: as §1

[6] = system: methicillin-sensitive Staphylococcus epidermidis (MSSE); test: as above; details: for Anti-bacterial activity (MIC), strain MSSE 15-3: clinical isolate MSSE 15-3; for Anti-bacterial activity (MIC), strain MSSE 15-4: clinical isolate MSSE 15-4; for Anti-bacterial activity (MIC), strain MSSE 15-5: clinical isolate MSSE 15-5; for Anti-bacterial activity (MIC), strain MSSE 15-6: clinical isolate MSSE 15-6
Procedure, shortened: as §1

[7] = system: methicillin-sensitive Staphylococcus aureus (MSSA); test: as above; details: for Anti-bacterial activity (MIC), strain MSSA 15-3: clinical isolate MSSA 15-3; for Anti-bacterial activity (MIC), strain MSSA 15-4: clinical isolate MSSA 15-4; for Anti-bacterial activity (MIC), strain MSSA 15-5: clinical isolate MSSA 15-5; for Anti-bacterial activity (MIC), strain MSSA 15-6: clinical isolate MSSA 15-6
Procedure, shortened: as §1

[8] = system: Streptococcus pneoumoniae (SPN); test: as above; details: for Anti-bacterial activity (MIC), strain SPN 16-2: clinical isolate SPN 16-2; for Anti-bacterial activity (MIC), strain SPN 16-4: clinical isolate SPN 16-4
Procedure, shortened: as §1

[9] = system: methicillin-resistant Staphylococcus aureus (MRSA); test: as above; details: for Anti-bacterial activity (MIC), strain MRSA 15-1: clinical isolate MRSA 15-1; for Anti-bacterial activity (MIC), strain MRSA 15-2: clinical isolate MRSA 15-2; for Anti-bacterial activity (MIC), strain MRSA 15-3: clinical isolate MRSA 15-3; for Anti-bacterial activity (MIC), strain MRSA 15-4: clinical isolate MRSA 15-4
Procedure, shortened: as §1

[10] = system: HCT-116 colorectal cancer cell line; test: CCK-8 proliferation inhibition; details: Homo sapiens, HCT-116, 72 h, concentration of 30 μM; 72 hours; CCK-8; read-out: HCT116 inhibition rate/%
Procedure, shortened: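 Proliferation over 72 hours of compound treatment was measured with CCK-8 against a 1‰ DMSO control.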

Structure (SMILES): CCCC[C@H](CC(=O)NO)C(=O)N1CC2(CC2)C[C@H]1c1nc2ccccc2[nH]1 [Example 58, (R)-3-((S)-6-(1H-benzimidazol-2-yl)-5-azaspiro[2.4]heptane-5-formyl)-N-hydroxyheptanamide]
- Anti-bacterial activity (MIC), strain MRSE 15-1 [1]: > 32 µg/mL
- Anti-bacterial activity (MIC), strain MRSE 15-2 [1]: > 32 µg/mL
- Anti-bacterial activity (MIC), strain MRSE 15-3 [1]: > 32 µg/mL
- Anti-bacterial activity (MIC), strain MRSE 15-7 [1]: > 32 µg/mL
- Anti-bacterial activity (MIC), strain BCA 14-1 [2]: > 32 µg/mL
- Anti-bacterial activity (MIC), strain BCA 14-4 [2]: > 32 µg/mL
- Anti-bacterial activity (MIC), strain BCA 14-5 [2]: 8 µg/mL
- Anti-bacterial activity (MIC), strain BCA 14-6 [2]: > 32 µg/mL
- Anti-bacterial activity (MIC), strain BCA 14-7 [2]: > 32 µg/mL
- Anti-bacterial activity (MIC), strain BCA 14-8 [2]: > 32 µg/mL
- Anti-bacterial activity (MIC), strain BCA 14-10 [2]: > 32 µg/mL
- Anti-bacterial activity (MIC), strain EFM 15-1 [3]: > 32 µg/mL
- Anti-bacterial activity (MIC), strain EFM 15-2 [3]: > 32 µg/mL
- Anti-bacterial activity (MIC), strain EFM 15-3 [3]: > 32 µg/mL
- Anti-bacterial activity (MIC), strain EFM 15-4 [3]: 8 µg/mL
- Anti-bacterial activity (MIC), strain EFM 15-5 [3]: 8 µg/mL
- Anti-bacterial activity (MIC), strain EFM 15-6 [3]: 8 µg/mL
- Anti-bacterial activity (MIC), strain EFA 15-1 [4]: > 32 µg/mL
- Anti-bacterial activity (MIC), strain EFA 15-2 [4]: > 32 µg/mL
- Anti-bacterial activity (MIC), strain EFA 15-3 [4]: > 32 µg/mL
- Anti-bacterial activity (MIC), strain EFA 15-4 [4]: > 32 µg/mL
- Anti-bacterial activity (MIC), strain EFA 15-5 [4]: > 32 µg/mL
- Anti-bacterial activity (MIC), strain EFA 15-6 [4]: > 32 µg/mL
- Anti-bacterial activity (MIC), strain EFA 15-9 [4]: > 32 µg/mL
- Anti-bacterial activity (MIC), strain ECO+ 15-1 [5]: > 32 µg/mL
- Anti-bacterial activity (MIC), strain ECO+ 15-2 [5]: > 32 µg/mL
- Anti-bacterial activity (MIC), strain ECO+ 15-3 [5]: > 32 µg/mL
- Anti-bacterial activity (MIC), strain ECO+ 15-4 [5]: > 32 µg/mL
- Anti-bacterial activity (MIC), strain ECO− 15-1 [5]: > 32 µg/mL
- Anti-bacterial activity (MIC), strain ECO− 15-2 [5]: > 32 µg/mL
- Anti-bacterial activity (MIC), strain ECO− 15-3 [5]: > 32 µg/mL
- Anti-bacterial activity (MIC), strain ECO− 15-4 [5]: > 32 µg/mL
- Anti-bacterial activity (MIC), strain MSSE 15-3 [6]: > 32 µg/mL
- Anti-bacterial activity (MIC), strain MSSE 15-4 [6]: > 32 µg/mL
- Anti-bacterial activity (MIC), strain MSSE 15-5 [6]: > 32 µg/mL
- Anti-bacterial activity (MIC), strain MSSE 15-6 [6]: > 32 µg/mL
- Anti-bacterial activity (MIC), strain MSSA 15-3 [7]: > 32 µg/mL
- Anti-bacterial activity (MIC), strain MSSA 15-4 [7]: > 32 µg/mL
- Anti-bacterial activity (MIC), strain MSSA 15-5 [7]: > 32 µg/mL
- Anti-bacterial activity (MIC), strain MSSA 15-6 [7]: > 32 µg/mL
- Anti-bacterial activity (MIC), strain SPN 16-2 [8]: 8 µg/mL
- Anti-bacterial activity (MIC), strain SPN 16-4 [8]: > 32 µg/mL
- Anti-bacterial activity (MIC), strain MRSA 15-1 [9]: > 32 µg/mL
- Anti-bacterial activity (MIC), strain MRSA 15-2 [9]: > 32 µg/mL
- Anti-bacterial activity (MIC), strain MRSA 15-3 [9]: > 32 µg/mL
- Anti-bacterial activity (MIC), strain MRSA 15-4 [9]: > 32 µg/mL
- inhibition at 30 µM [10]: 24%

Structure (SMILES): CCCC[C@H](CC(=O)NO)C(=O)N1CC2(CC2)C[C@@H]1c1nc2ccccc2[nH]1 [Example 59, (R)-3-((R)-6-(1H-benzimidazol-2-yl)-5-azaspiro[2.4]heptane-5-carbonyl)-N-hydroxyheptanamide]
- Anti-bacterial activity (MIC), strain MRSE 15-1 [1]: > 32 µg/mL
- Anti-bacterial activity (MIC), strain MRSE 15-2 [1]: > 32 µg/mL
- Anti-bacterial activity (MIC), strain MRSE 15-3 [1]: > 32 µg/mL
- Anti-bacterial activity (MIC), strain MRSE 15-7 [1]: > 32 µg/mL
- Anti-bacterial activity (MIC), strain BCA 14-1 [2]: > 32 µg/mL
- Anti-bacterial activity (MIC), strain BCA 14-4 [2]: > 32 µg/mL
- Anti-bacterial activity (MIC), strain BCA 14-5 [2]: 16 µg/mL
- Anti-bacterial activity (MIC), strain BCA 14-6 [2]: > 32 µg/mL
- Anti-bacterial activity (MIC), strain BCA 14-7 [2]: > 32 µg/mL
- Anti-bacterial activity (MIC), strain BCA 14-8 [2]: > 32 µg/mL
- Anti-bacterial activity (MIC), strain BCA 14-10 [2]: > 32 µg/mL
- Anti-bacterial activity (MIC), strain EFM 15-1 [3]: > 32 µg/mL
- Anti-bacterial activity (MIC), strain EFM 15-2 [3]: > 32 µg/mL
- Anti-bacterial activity (MIC), strain EFM 15-3 [3]: > 32 µg/mL
- Anti-bacterial activity (MIC), strain EFM 15-4 [3]: > 32 µg/mL
- Anti-bacterial activity (MIC), strain EFM 15-5 [3]: 16 µg/mL
- Anti-bacterial activity (MIC), strain EFM 15-6 [3]: 16 µg/mL
- Anti-bacterial activity (MIC), strain EFA 15-1 [4]: > 32 µg/mL
- Anti-bacterial activity (MIC), strain EFA 15-2 [4]: > 32 µg/mL
- Anti-bacterial activity (MIC), strain EFA 15-3 [4]: > 32 µg/mL
- Anti-bacterial activity (MIC), strain EFA 15-4 [4]: > 32 µg/mL
- Anti-bacterial activity (MIC), strain EFA 15-5 [4]: > 32 µg/mL
- Anti-bacterial activity (MIC), strain EFA 15-6 [4]: > 32 µg/mL
- Anti-bacterial activity (MIC), strain EFA 15-9 [4]: > 32 µg/mL
- Anti-bacterial activity (MIC), strain ECO+ 15-1 [5]: > 32 µg/mL
- Anti-bacterial activity (MIC), strain ECO+ 15-2 [5]: > 32 µg/mL
- Anti-bacterial activity (MIC), strain ECO+ 15-3 [5]: > 32 µg/mL
- Anti-bacterial activity (MIC), strain ECO+ 15-4 [5]: > 32 µg/mL
- Anti-bacterial activity (MIC), strain ECO− 15-1 [5]: > 32 µg/mL
- Anti-bacterial activity (MIC), strain ECO− 15-2 [5]: > 32 µg/mL
- Anti-bacterial activity (MIC), strain ECO− 15-3 [5]: > 32 µg/mL
- Anti-bacterial activity (MIC), strain ECO− 15-4 [5]: > 32 µg/mL
- Anti-bacterial activity (MIC), strain MSSE 15-3 [6]: > 32 µg/mL
- Anti-bacterial activity (MIC), strain MSSE 15-4 [6]: > 32 µg/mL
- Anti-bacterial activity (MIC), strain MSSE 15-5 [6]: > 32 µg/mL
- Anti-bacterial activity (MIC), strain MSSE 15-6 [6]: > 32 µg/mL
- Anti-bacterial activity (MIC), strain MSSA 15-3 [7]: > 32 µg/mL
- Anti-bacterial activity (MIC), strain MSSA 15-4 [7]: > 32 µg/mL
- Anti-bacterial activity (MIC), strain MSSA 15-5 [7]: > 32 µg/mL
- Anti-bacterial activity (MIC), strain MSSA 15-6 [7]: > 32 µg/mL
- Anti-bacterial activity (MIC), strain SPN 16-2 [8]: 8 µg/mL
- Anti-bacterial activity (MIC), strain SPN 16-4 [8]: 8 µg/mL
- Anti-bacterial activity (MIC), strain MRSA 15-1 [9]: > 32 µg/mL
- Anti-bacterial activity (MIC), strain MRSA 15-2 [9]: > 32 µg/mL
- Anti-bacterial activity (MIC), strain MRSA 15-3 [9]: > 32 µg/mL
- Anti-bacterial activity (MIC), strain MRSA 15-4 [9]: > 32 µg/mL
- inhibition at 30 µM [10]: 12%
